Some test systems named below: CAKI-1 renal; UO-31 renal; NCI-H226 lung; SN12C renal; HOP-62 NSCLC; COLO 205 colon; MCF7 breast; OVCAR-4 ovarian; NCI-H460 lung; 786-0 renal.
Assay in all cases: NCI anticancer screen, dose series, 48 h

Values joined by “and” are separate entries in the source; they are usually repeats but may differ in a detail not shown here. Equal values may be shown once.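 Five concentrations, 48 hours, 96-well plates. GI50: concentration for 50% inhibition of growth. TGI: total growth inhibition.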

Regarding `CO[C@@H]1[C@H](N(C)C(=O)c2ccccc2)C[C@@H]2O[C@]1(C)n1c3ccccc3c3c4c(c5c6ccccc6n2c5c31)C(=O)NC4=O`, the GI50 with CAKI-1 renal is 0.232 µM; in the experiment on UO-31 renal, 0.211 µM; in the experiment on NCI-H226 lung it was 0.303 µM; in the experiment on SN12C renal, 0.459 µM; in the experiment on HOP-62 NSCLC, 0.382 µM; with COLO 205 colon it was 0.398 µM. Further, the GI50 in the experiment on MCF7 breast was 1.84 µM; in the experiment on OVCAR-4 ovarian it was 0.7 µM; with NCI-H460 lung, 0.646 µM; in the experiment with 786-0 renal, 0.744 µM. Besides, the TGI in the experiment with CAKI-1 renal was 2.66 µM; with UO-31 renal, 1.46 µM; with NCI-H226 lung, over 100 µM; in the experiment on SN12C renal it was over 100 µM; with HOP-62 NSCLC, over 100 µM; in the experiment on COLO 205 colon, over 100 µM. In addition, the TGI in the experiment on MCF7 breast, in the experiment with OVCAR-4 ovarian, in the experiment on NCI-H460 lung and in the experiment with 786-0 renal was over 100 µM in each case.

As for `COc1cc2c3c(n(CCCNC(C)(C)CO)c(=O)c2cc1OC)-c1cc2c(cc1C3=O)OCO2`, the GI50 with CAKI-1 renal is 0.446 µM; with UO-31 renal, 1.96 µM; with NCI-H226 lung it was 0.392 µM; with SN12C renal, 0.157 µM; in the experiment with HOP-62 NSCLC, 0.131 µM; with COLO 205 colon, 12.8 µM. Moreover, the GI50 in the experiment on MCF7 breast is 0.294 µM; in the experiment on OVCAR-4 ovarian, 11.3 µM; in the experiment with NCI-H460 lung, 1.15 µM; in the experiment on 786-0 renal it was 0.0829 µM. The TGI was 23.8 µM in the experiment on CAKI-1 renal; over 55.4 µM with UO-31 renal; 8.33 µM in the experiment on NCI-H226 lung; 2.65 µM in the experiment with SN12C renal; 5.14 µM in the experiment with HOP-62 NSCLC; over 67.5 µM in the experiment with COLO 205 colon. The TGI with MCF7 breast is over 50.5 µM; with OVCAR-4 ovarian, 42.1 µM; with NCI-H460 lung, over 69.2 µM; in the experiment on 786-0 renal, 0.66 µM.

Regarding `COC(=O)Nc1nc2ccc(C(=O)C3CC3)cc2[nH]1`, the GI50 with CAKI-1 renal was 0.305 µM; in the experiment with UO-31 renal it was 3.21 µM; in the experiment on NCI-H226 lung, 0.423 µM; in the experiment with SN12C renal, 0.717 µM; in the experiment with HOP-62 NSCLC it was 0.523 µM; with COLO 205 colon it was 0.392 µM. The GI50 with MCF7 breast is 0.331 µM; in the experiment on OVCAR-4 ovarian, 0.551 µM; in the experiment with NCI-H460 lung, 0.363 µM; in the experiment with 786-0 renal it was 0.581 µM. Moreover, the TGI in the experiment with CAKI-1 renal was over 51.6 µM; with UO-31 renal, over 63.1 µM; with NCI-H226 lung, 30.2 µM; in the experiment with SN12C renal it was over 100 µM; in the experiment with HOP-62 NSCLC it was over 42.2 µM; in the experiment with COLO 205 colon, 10.4 µM. Besides, the TGI with MCF7 breast was over 56.1 µM; with OVCAR-4 ovarian it was over 100 µM; with NCI-H460 lung, 20.7 µM; in the experiment on 786-0 renal it was 30.5 µM.

For `O=C(NCCNc1nccc(-c2c(-c3ccc(F)cc3)nc3sccn23)n1)Nc1cccc(C(F)(F)F)c1`, the GI50 was 3.68 µM with CAKI-1 renal; 2.94 µM in the experiment with UO-31 renal; 2.38 µM with NCI-H226 lung; 6.42 µM in the experiment with SN12C renal; 2.9 µM in the experiment with HOP-62 NSCLC; 2.57 µM in the experiment on COLO 205 colon. For the same molecule, the GI50 is 3.73 µM in the experiment on MCF7 breast, 4.74 µM in the experiment on OVCAR-4 ovarian, 4.51 µM in the experiment with NCI-H460 lung and 5.16 µM with 786-0 renal. Further, the TGI was determined as 27.6 µM with CAKI-1 renal; 16 µM with UO-31 renal; 10.6 µM in the experiment with NCI-H226 lung; 22.7 µM in the experiment with SN12C renal; 10.1 µM in the experiment with HOP-62 NSCLC; 7.73 µM in the experiment with COLO 205 colon. Besides, the TGI in the experiment with MCF7 breast amounted to 19.5 µM; in the experiment with OVCAR-4 ovarian it was 43 µM; in the experiment on NCI-H460 lung it was 17.5 µM; in the experiment with 786-0 renal, 24.9 µM.

Turning to `CSc1nc(SC)c2c(C)cn(Cc3ccccc3)c2n1`, the TGI in the experiment with CAKI-1 renal, in the experiment on UO-31 renal, in the experiment with NCI-H226 lung, in the experiment with SN12C renal, with HOP-62 NSCLC and in the experiment on COLO 205 colon was over 100 µM throughout. The TGI in the experiment on MCF7 breast, in the experiment with OVCAR-4 ovarian, in the experiment on NCI-H460 lung and with 786-0 renal was over 100 µM in each case.

On to `NNC(=S)N/N=C/c1ccccn1`, for which the GI50 in the experiment on CAKI-1 renal is 1.66 µM; in the experiment with UO-31 renal, 3.99 µM; in the experiment on NCI-H226 lung, 2.41 µM; in the experiment on SN12C renal, 2.61 µM; in the experiment on HOP-62 NSCLC it was 1.44 µM; in the experiment with COLO 205 colon, 2.39 µM. The GI50 in the experiment on MCF7 breast was 2.99 µM; in the experiment on OVCAR-4 ovarian, 1.67 µM; with NCI-H460 lung, 1.23 µM; with 786-0 renal, 1.76 µM. Besides, the TGI was over 100 µM in the experiment on CAKI-1 renal; over 100 µM with UO-31 renal; 13.8 µM in the experiment on NCI-H226 lung; over 100 µM with SN12C renal; 35.3 µM in the experiment on HOP-62 NSCLC; over 100 µM with COLO 205 colon. Moreover, the TGI in the experiment on MCF7 breast is over 100 µM; with OVCAR-4 ovarian, over 100 µM; with NCI-H460 lung it was 8.54 µM; with 786-0 renal it was over 100 µM.

With `Nc1n[nH]c2ccc([C@H]3[C@@H]4C5CCC(C5)[C@@H]4c4c(ccc5[nH]ncc45)N3S(=O)(=O)C3CC3)cc12` (stereo not given in full), the GI50 was 0.156 µM in the experiment on CAKI-1 renal; 0.298 µM with UO-31 renal; 0.441 µM in the experiment with NCI-H226 lung; 0.272 µM in the experiment with SN12C renal; 0.335 µM in the experiment on HOP-62 NSCLC; 0.193 µM in the experiment on COLO 205 colon. Also, the GI50 with MCF7 breast was 0.2 µM; with OVCAR-4 ovarian it was 2.63 µM; in the experiment on NCI-H460 lung, 0.181 µM; in the experiment on 786-0 renal it was 0.366 µM. Further, the TGI was 3.42 µM in the experiment with CAKI-1 renal; 29.2 µM with UO-31 renal; 10.1 µM in the experiment on NCI-H226 lung; over 50 µM in the experiment with SN12C renal; 20.7 µM in the experiment on HOP-62 NSCLC; 6.31 µM in the experiment on COLO 205 colon. The TGI with MCF7 breast is over 35.9 µM; in the experiment with OVCAR-4 ovarian it was over 50 µM; in the experiment with NCI-H460 lung, 8.38 µM; in the experiment with 786-0 renal, 22.3 µM.

As to `Nc1ncnc2occ(-c3ccc(NC(=O)Nc4cc(C(F)(F)F)ccc4F)cc3)c12`, the GI50 in the experiment with CAKI-1 renal was 4.36 µM and 1.78 µM; in the experiment with UO-31 renal, 4.72 µM and 1.48 µM; with NCI-H226 lung, 0.717 µM and 0.929 µM; in the experiment on SN12C renal it was 4 µM and 1.47 µM; in the experiment with HOP-62 NSCLC it was 6.32 µM and 2.3 µM; with COLO 205 colon, 5.27 µM and 3.74 µM. Also, the GI50 in the experiment on MCF7 breast was 2.37 µM and 1.16 µM; with OVCAR-4 ovarian it was 4.2 µM and 2.36 µM; with NCI-H460 lung, 4.86 µM and 2.96 µM; in the experiment with 786-0 renal, 6.63 µM and 4.43 µM. Besides, the TGI in the experiment on CAKI-1 renal was 18.2 µM and 9 µM; in the experiment on UO-31 renal, 14.1 µM and 7.88 µM; in the experiment on NCI-H226 lung it was 18.7 µM and 7.01 µM; with SN12C renal it was 21.2 µM and 11.6 µM; with HOP-62 NSCLC, 16.2 µM and 5.95 µM; in the experiment on COLO 205 colon, 9.88 µM and 7.13 µM. The TGI is 17.7 µM and 12.6 µM with MCF7 breast; 17.1 µM and 14.6 µM in the experiment on OVCAR-4 ovarian; 11.2 µM and 6.94 µM in the experiment with NCI-H460 lung; 16.4 µM and 10.3 µM with 786-0 renal.

(Values after PubChem BioAssay (NCI).)
